In ChEMBL document CHEMBL5113409, “Design and synthesis of proteolysis targeting chimeras (PROTACs) as an EGFR degrader based on CO-1686” (Eur J Med Chem, 2022) one finds IC50, Activity and Ratio IC50 data, which are given here for 25 molecules.

Structures are written as SMILES. The source made the active and inactive calls. The rule behind the calls is not given here.

The test system of test [1] is A549. The experiment in a line: Anti-proliferative activity against human A549 cells assessed as reduction in cell proliferation incubated for 72 hrs by MTT assay. In kind it is functional, cell-based. The settings on record: A549, 72 h. Background: Formazan colour is commonly taken as a measure of viable cells.
Test [2] relates to PC-9. The experiment in a line: Anti-proliferative activity against human PC-9 cells assessed as reduction in cell proliferation incubated for 72 hrs by MTT assay. In kind it is functional, cell-based. The note with it: PC-9, 72 h.
The subject of test [3] is NCI-H1975. In words: Anti-proliferative activity against human NCI-H1975 cells assessed as reduction in cell proliferation incubated for 72 hrs by MTT assay. Format: functional, cell-based. The settings on record: NCI-H1975, 72 h.
In test [4] the test system is Protein cereblon/Epidermal growth factor receptor (Homo sapiens), P00533+Q96SW2 [L858R,T790M]. In words: Protac activity at CRBN/EGFR L858R/T790M mutant in human NCI-H1975 cells assessed as L858R/T790M mutant degradation at 3 uM incubated for 48 hrs by Western blot analysis. In kind it is cell-based. On the technique in general: Immunoblotting shows a protein as a band on a membrane.

For test [5], the target named is Epidermal growth factor receptor (Homo sapiens, UniProt P00533). The experiment in a line: Inhibition of wild type EGFR (unknown origin) incubated for 10 mins by HTRF KinEASE-TK assay. (Time-resolved FRET reads energy transfer from a long-lived donor to a nearby acceptor.)
For test [6], the target named is Epidermal growth factor receptor (Homo sapiens, UniProt P00533, L858R/T790M). The experiment in a line: Inhibition of EGFR L858R/T790M mutant (unknown origin) incubated for 35 mins by HTRF KinEASE-TK assay.
For test [7], the species on record is Homo sapiens. The experiment in a line: Selectivity index, ratio of IC50 for wild type EGFR (unknown origin) to IC50 for Protein cereblon/Epidermal growth factor receptor L858R/T790M mutant.

For the molecule `C=CC(=O)Nc1cccc(Nc2nc(Nc3ccc(N4CCN(C(=O)CCCCC(=O)Nc5cccc6c5C(=O)N(C5CCC(=O)NC5=O)C6=O)CC4)cc3OC)ncc2C(F)(F)F)c1` (configuration not stated), the IC50 in test [1] is above 100 µM; in test [2], 4.62 µM; in test [3], 1.56 µM.

For `C=CC(=O)Nc1cccc(Nc2nc(Nc3ccc(N4CCN(CC(=O)NCCOc5cccc6c5C(=O)N(C5CCC(=O)NC5=O)C6=O)CC4)cc3OC)ncc2C(F)(F)F)c1` (configuration not stated), the figures for the half-inhibitory concentration (IC50) in test [1], in test [2] and in test [3] were above 100 µM, 7.34 µM and 9.31 µM, respectively.

On to `C=CC(=O)Nc1cccc(Nc2nc(Nc3ccc(N4CCN(C(=O)CCCCCCCCC(=O)Nc5cccc6c5C(=O)N(C5CCC(=O)NC5=O)C6=O)CC4)cc3OC)ncc2C(F)(F)F)c1` (configuration not stated), for which the IC50 in test [1] was above 100 µM; in test [2], 26.7 µM; in test [3], 17 µM.

For the molecule `C=CC(=O)Nc1cccc(Nc2nc(Nc3ccc(N4CCN(CC(=O)NCCCCCNc5cccc6c5C(=O)N(C5CCC(=O)NC5=O)C6=O)CC4)cc3OC)ncc2C(F)(F)F)c1` (configuration not stated), the IC50 is above 100 µM in test [1], 3.43 µM in test [2] and 0.52 µM in test [3].

For the molecule `C=CC(=O)Nc1cccc(Nc2nc(Nc3ccc(N4CCN(C(=O)CCCCNc5cccc6c5C(=O)N(C5CCC(=O)NC5=O)C6=O)CC4)cc3OC)ncc2C(F)(F)F)c1` (configuration not stated), in test [4], the result was Active. Further, the half-maximal inhibitory concentration (IC50) was above 100 µM in test [1]; 6.74 µM in test [2]; 1.09 µM in test [3]; 0.614 µM in test [5]; 0.121 µM in test [6]. Also, the Ratio IC50 in test [7] is 5.

Take `C=CC(=O)Nc1cccc(Nc2nc(Nc3ccc(N4CCN(CC(=O)NCCNc5cccc6c5CN(C5CCC(=O)NC5=O)C6=O)CC4)cc3OC)ncc2C(F)(F)F)c1` (configuration not stated): the IC50 in test [1] is 33.3 µM; in test [2], 4.86 µM; in test [3], 8.36 µM; in test [5], 2.4 µM; in test [6], 0.965 µM. In addition, the Ratio IC50 in test [7] turned out to be 2.5.

Consider `C=CC(=O)Nc1cccc(Nc2nc(Nc3ccc(N4CCN(C(=O)CCCCCCCC(=O)Nc5cccc6c5C(=O)N(C5CCC(=O)NC5=O)C6=O)CC4)cc3OC)ncc2C(F)(F)F)c1` (configuration not stated), for which the half-inhibitory concentration (IC50) was above 100 µM in test [1], 5.31 µM in test [2] and 1.53 µM in test [3].

For the molecule `C=CC(=O)Nc1cccc(Nc2nc(Nc3ccc(N4CCN(CC(=O)NCCNc5ccc6c(c5)C(=O)N(C5CCC(=O)NC5=O)C6=O)CC4)cc3OC)ncc2C(F)(F)F)c1` (configuration not stated), the concentration for half-maximal inhibition (IC50) is above 100 µM in test [1], 3.51 µM in test [2] and 4.72 µM in test [3].

For the molecule `C=CC(=O)Nc1cccc(Nc2nc(Nc3ccc(N4CCN(CCOCCNc5cccc6c5C(=O)N(C5CCC(=O)NC5=O)C6=O)CC4)cc3OC)ncc2C(F)(F)F)c1` (configuration not stated), in test [4], the outcome was Active. Further, the half-maximal inhibitory concentration (IC50) in test [1] was 36.9 µM; in test [2], 0.5 µM; in test [3], 0.22 µM; in test [5], 0.364 µM; in test [6] it was 0.0241 µM. Moreover, in test [7], the Ratio IC50 was determined as 15.

Regarding `C=CC(=O)Nc1cccc(Nc2nc(Nc3ccc(N4CCN(C(=O)CCCCCCCCCCCC(=O)Nc5cccc6c5C(=O)N(C5CCC(=O)NC5=O)C6=O)CC4)cc3OC)ncc2C(F)(F)F)c1` (configuration not stated), the 50% inhibitory concentration (IC50) in test [1] is above 100 µM; in test [2] it was 18.1 µM; in test [3], 17.1 µM.

Regarding `C=CC(=O)Nc1cccc(Nc2nc(Nc3ccc(N4CCN(CC(=O)NCCCCCCNc5cccc6c5C(=O)N(C5CCC(=O)NC5=O)C6=O)CC4)cc3OC)ncc2C(F)(F)F)c1` (configuration not stated), the IC50 is above 100 µM in test [1], 3.28 µM in test [2] and 4.14 µM in test [3].

Regarding `C=CC(=O)Nc1cccc(Nc2nc(Nc3ccc(N4CCN(C(=O)CCCCCCCCCCC(=O)Nc5cccc6c5C(=O)N(C5CCC(=O)NC5=O)C6=O)CC4)cc3OC)ncc2C(F)(F)F)c1` (configuration not stated), the figures for the half-inhibitory concentration (IC50) in test [1], in test [2] and in test [3] were above 100 µM, 8.77 µM and 8.55 µM, respectively.

Take `C=CC(=O)Nc1cccc(Nc2nc(Nc3ccc(N4CCN(CC(=O)NCCCNc5cccc6c5C(=O)N(C5CCC(=O)NC5=O)C6=O)CC4)cc3OC)ncc2C(F)(F)F)c1` (configuration not stated): the values for the IC50 in test [1], in test [2] and in test [3] were above 100 µM, 2.58 µM and 5.76 µM, respectively.

`C=CC(=O)Nc1cccc(Nc2nc(Nc3ccc(N4CCN(CC(=O)NCCCCNC(=O)CNc5cccc6c5C(=O)N(C5CCC(=O)NC5=O)C6=O)CC4)cc3OC)ncc2C(F)(F)F)c1` (configuration not stated): the IC50 is above 100 µM in test [1], 13.2 µM in test [2] and 11.7 µM in test [3].

Consider `C=CC(=O)Nc1cccc(Nc2nc(Nc3ccc(N4CCN(C(=O)CCCC(=O)Nc5cccc6c5C(=O)N(C5CCC(=O)NC5=O)C6=O)CC4)cc3OC)ncc2C(F)(F)F)c1` (configuration not stated), for which the outcome in test [4] was Active. In addition, the 50% inhibitory concentration (IC50) in test [1] was above 100 µM; in test [2] it was 1.35 µM; in test [3], 0.95 µM; in test [5], 3.23 µM; in test [6] it was 0.033 µM. The Ratio IC50 in test [7] was determined as 98.

With `C=CC(=O)Nc1cccc(Nc2nc(Nc3ccc(N4CCN(CC(=O)NCCNC(=O)CNc5cccc6c5C(=O)N(C5CCC(=O)NC5=O)C6=O)CC4)cc3OC)ncc2C(F)(F)F)c1` (configuration not stated), the half-inhibitory concentration (IC50) in test [1] was above 100 µM; in test [2], 13.4 µM; in test [3], 8.89 µM.

`C=CC(=O)Nc1cccc(Nc2nc(Nc3ccc(N4CCN(CC(=O)NCCCCCCNC(=O)CNc5cccc6c5C(=O)N(C5CCC(=O)NC5=O)C6=O)CC4)cc3OC)ncc2C(F)(F)F)c1` (configuration not stated): the results for the IC50 in test [1], in test [2] and in test [3] were above 100 µM, 6.61 µM and 17 µM, respectively.

On to `C=CC(=O)Nc1cccc(Nc2nc(Nc3ccc(N4CCN(C(=O)CCCCCC(=O)Nc5cccc6c5C(=O)N(C5CCC(=O)NC5=O)C6=O)CC4)cc3OC)ncc2C(F)(F)F)c1` (configuration not stated), for which the outcome in test [4] was Active. The IC50 in test [1] was determined as 29.8 µM; in test [2] it was 0.9 µM; in test [3], 0.59 µM; in test [5], 0.648 µM; in test [6] it was 0.0203 µM. Besides, the Ratio IC50 in test [7] is 32.

As to `C=CC(=O)Nc1cccc(Nc2nc(Nc3ccc(N4CCN(CC(=O)NCCNc5cccc6c5C(=O)N(C5CCC(=O)N(C)C5=O)C6=O)CC4)cc3OC)ncc2C(F)(F)F)c1` (configuration not stated), the IC50 in test [1] was above 100 µM; in test [2], 1.89 µM; in test [3], 4.68 µM; in test [5], 1.4 µM; in test [6], 0.134 µM. The Ratio IC50 in test [7] came to 11.

Take `C=CC(=O)Nc1cccc(Nc2nc(Nc3ccc(N4CCN(CC(=O)NCCCNC(=O)CNc5cccc6c5C(=O)N(C5CCC(=O)NC5=O)C6=O)CC4)cc3OC)ncc2C(F)(F)F)c1` (configuration not stated): the half-inhibitory concentration (IC50) is above 100 µM in test [1], 7.67 µM in test [2] and 7.35 µM in test [3].

For `C=CC(=O)Nc1cccc(Nc2nc(Nc3ccc(N4CCN(C(=O)CCCCCCCCCC(=O)Nc5cccc6c5C(=O)N(C5CCC(=O)NC5=O)C6=O)CC4)cc3OC)ncc2C(F)(F)F)c1` (configuration not stated), the 50% inhibitory concentration (IC50) in test [1] was above 100 µM; in test [2], 3.69 µM; in test [3], 2.81 µM.

As to `C=CC(=O)Nc1cccc(Nc2nc(Nc3ccc(N4CCN(C(=O)CCCCCCCCCCCCC(=O)Nc5cccc6c5C(=O)N(C5CCC(=O)NC5=O)C6=O)CC4)cc3OC)ncc2C(F)(F)F)c1` (configuration not stated), the 50% inhibitory concentration (IC50) is above 100 µM in test [1], 46.5 µM in test [2] and 62 µM in test [3].

As to `C=CC(=O)Nc1cccc(Nc2nc(Nc3ccc(N4CCN(C(=O)CCCCCCC(=O)Nc5cccc6c5C(=O)N(C5CCC(=O)NC5=O)C6=O)CC4)cc3OC)ncc2C(F)(F)F)c1` (configuration not stated), the figures for the IC50 in test [1], in test [2] and in test [3] were above 100 µM, 2.55 µM and 5.02 µM, respectively.

On to `C=CC(=O)Nc1cccc(Nc2nc(Nc3ccc(N4CCN(CC(=O)NCCCCCNC(=O)CNc5cccc6c5C(=O)N(C5CCC(=O)NC5=O)C6=O)CC4)cc3OC)ncc2C(F)(F)F)c1` (configuration not stated), for which the IC50 was above 100 µM in test [1], 14.4 µM in test [2] and 12.8 µM in test [3].

Turning to `C=CC(=O)Nc1cccc(Nc2nc(Nc3ccc(N4CCN(C(C)=O)CC4)cc3OC)ncc2C(F)(F)F)c1` [ROCILETINIB], the values for the IC50 in test [1], in test [2] and in test [3] were 7.57 µM, 0.27 µM and 0.13 µM, respectively.

Usually IC50 stands for the point on the concentration scale where inhibition reaches its midpoint.
